Data as given in US20040253289A1, “Natural plant compound with anti-HIV activity” (MIKONIK TECHNOLOGIES, LTD., priority 2004, published 2004).

Assays:
[1] = tested on: human immunodeficiency virus; conditions: cited from earlier work; for inhibition of viral replication: in vitro
Siberian sturgeon fry = Siberian sturgeon fry treated with solution; cited from earlier work
mice = conditions: acute toxicity; cited from earlier work
rats = conditions: acute toxicity; cited from earlier work
[2] = prolonged and chronic experiments; cited from earlier work
[3] = tested on: HIV-1zmb high/rapid strain; assay: In vitro anti-HIV activity in infected cell culture (overall, three tests); format: cell-based
Source text: (§1) In all experiments the suspensional T-lymphoblastoid cell line MT-4 was used. Passages have been carried out every three days for achieving the initial cell concentration at about 4-5·10^5 cells ml^−1.
(§2) HIV-1zmb high/rapid strain with the titer more than 6.0 log TCID50 isolated in Belarus has been used in the tests.
(§3) The tests have been carried out under therapeutic circuit when the testing compound and virus were put into the cell culture simultaneously.

[4] = tested on: HIV-1zmb high/rapid strain; assay: Indirect immunofluorescence (IF), HIV-specific antigens on infected cells; format: cell-based; conditions: 3rd day after infecting
Source text: as §1, §2, §3
The indirect immunofluorescence assay is a useful means for determining the number of cells productively infected with HIV [Johnson V. A., Byington R. E. HIV indirect immunofluorescence assay. In “Techniques in HIV Research”: Stockton Press, 1990. P. 87-91]. This assay is quantitative and can be done using living cells. The technique gives the possibility to determine HIV-specific antigens expressed on cell surface membranes of the virus-infected cells. On the 3rd day after infecting, cells have been transferred onto wells of the laminated multiwell slides and fixed by cold (4° C.) acetone. Then the samples with fixed cells were treated by HIV-1-seropositive serum and then by FTC-conjugated sheep anti-human IgG. The resulting effect was estimated via evaluation of percentage of positive cells that was calculated using fluorescent microscope and taking into account 200 cells. […]

What does the source list for `C[C@H](CCCC(C)(C)O)[C@H]1CC[C@H]2[C@@H]3[C@@H](O)C=C4C[C@@H](O)CC[C@]4(C)[C@H]3CC[C@]12C` [7β,25-dihydroxycholesterol]?
antiviral concentration, fold lower than the highest concentration tested at which no toxicity was measurable ([1]; HIV replication in vitro): 13- to 25 fold; inhibition of viral replication [1]: inhibited viral replication at micromolar concentrations

With `CC(C)CCC[C@@H](C)[C@H]1CC[C@H]2[C@@H]3[C@@H](O)C=C4C[C@@H](O)CC[C@]4(C)[C@H]3CC[C@]12C` [7β-hydroxycholesterol] as the compound, how does the “inhibition of viral replication” value [1] read?
The value was “inhibited viral replication at micromolar concentrations”.

Which “increase of bacteriolytic activity of lysozyme in comparison with the control fish” value (Siberian sturgeon fry) does the source give for `CC(C)[C@@H](C)[C@@H](O)[C@H](O)[C@@H](C)[C@H]1CC[C@H]2[C@@H]3COC(=O)[C@H]4C[C@H](O)[C@H](O)C[C@]4(C)[C@H]3CC[C@]12C` [24-epibrassinolide] here?
The value was “up to 50%”.

What about the “γ-globulin level higher than in the control” value (Siberian sturgeon fry) of the same compound?
Its value is 10 to 65%.

What about the LD50 (mice) of the same compound?
Its LD50 is “more than 1000 mg·kg^−1”.

And the LD50 (rats)?
The LD50 was “more than 2000 mg·kg^−1”.

And the postponed negative effects [2]?
Its postponed negative effects is “no postponed negative effects”.

And the “amount of the living cells in the infected culture, higher in comparison with untreated control” value ([3]; 4-5th days after infecting)?
The value was “more than 50%”.

And the “average efficient concentration as anti-HIV agent in vitro” value ([3]; each test done in three repetitions, listed as EBI)?
Its value is 10 ng/mL.

What about the “production of viral-specific antigens on the cell's surface” value [4] of the same compound?
The value was “significantly decreased production of viral-specific antigens”.

Which “inhibition of viral replication” value [1] does the source give for `C[C@H](CCCC(C)(C)O)[C@H]1CC[C@H]2[C@@H]3CC=C4C[C@@H](O)CC[C@]4(C)[C@H]3CC[C@]12C` [25-hydroxycholesterol] here?
Its value is “inhibited viral replication at micromolar concentrations”.
